Like-named read-outs stand apart in the source and are kept apart here.
Key:
[1] = tested on: Strain 10168, methicillin resistant S. aureus (MRSA); assay: Resistance test (resistant mutants), Strain 10168; format: cell-based; details: MRSA, text after Table 16
Method: After 48 h incubation, the presence or absence of colonies likely to be resistant mutants is observed.
ED control or DMSO=only distilled water or DMSO is added
Ciprofloxacine DMSO: addition of Ciprofloxacine in DMSO

candidas = assay: MIC measurement (dilution test) on yeast strains; format: cell-based, Candida; parameters: key to MIC 90 gain / MIC 50 gain: gain = MIC of antifungal alone / MIC of antifungal + booster; details: Sertaconazole with booster, solvent DMSO
Source text: Inhibitory minimum concentration measurement tests are made in a solid agar medium according to international standards in force (CLSI M7-A9 Jan 12 standards): dispersion of the compounds to be tested in a Mueller Hinton gelose. An adaptation relating to the hydrophobicity of compounds and compositions is however necessary to disperse them in the medium: dilution of the compounds in a solvent. The compounds and compositions incorporated in the agar medium can be diluted beforehand in one or more solvents (Tween® 80 diluted with water, Tween® 80 diluted with […], DMSO diluted with water). The strains are deposited onto the agar surface with a steers apparatus. In the examples, different dissolution methods for products are tested in parallel to circumvent the problems of water/solvent distribution coefficient of the molecules (antimicrobial and potentiator) whereas the bacteria grow only in the aqueous phase. The technical requirement will not intervene in in vivo tests. The same dilution methods can be implemented in a liquid medium (microplates and tubes). The same methodology is implemented with fungi. […] MIC measurement: the minimum inhibitory concentration measurement tests are made in an agar solid medium according to international standards in force (CLSI standards), according to the previously defined protocol. […] The booster contribution as compared with the MIC of the antibiotic alone is expressed in a (MIC ATB)/(MIC ATB+booster) ratio. Thereby, gains are defined: […] The yeast strains tested (n=33) belong to the […] albicans, Candida tropicalis, Candida krusei, Candida parapsilosis, Candida glabrata species.

Strain 10168 SARM = assay: Growth test in liquid medium; format: cell-based; details: compound at a very low dose
Source text: The growth tests are made in a liquid medium with prior dispersing the antibiotic booster in a suitable solvent (tween/water).
4XMIC means that the concentration of antibiotic is 4 times higher than its MIC, measured when used alone on the strain considered.

E. Coli Strain 8150 = assay: Etest, E. Coli Strain 8150; format: cell-based; details: for MIC: Escherichia coli, read-out: MIC of Pipera tazo, Strain 8150; for MIC of Meropenem / MIC of Tigecycline / MIC of Pipera tazo: Strain 8150
Source text: (§1) The corresponding tests are made based on the usual MIC test: the Etest® (Biomerieux) strip is deposited onto the surface of a seeded agar medium in which the booster has been incorporated. This test enables solvent effect risks, that is a possible interaction with the solvent used in vitro, to be minimised.
(§2) The control corresponds to the test made without cineol. A control is made in each solvent tested: distilled water, Tween/water and DMSO.
(§3) ED control=antibiotic alone in distilled water
(§4) DMSO control=antibiotic alone in DMSO
(§5) TE control=antibiotic alone in Tween® 80

E. Coli Strain 08138 = assay: Etest, E. Coli Strain 08138; format: cell-based; details: for MIC: Escherichia coli, read-out: MIC of Pipera tazo, Strain 08138; for MIC of Cefoxitine / MIC of Tigecycline: Strain 08138
Source text: as §1, §2, §3, §4, §5

Pseudomonas Strain 08132 = assay: Etest, Pseudomonas Strain 08132; format: cell-based
Source text: as §1, §2, §3, §4, §5

Pseudomonas aeruginosa = assay: MIC measurement in agar medium (dilution test), Pyo; format: cell-based; details: potentiator alone
Source text: (§6) Inhibitory minimum concentration measurement tests are made in a solid agar medium according to international standards in force (CLSI M7-A9 Jan 12 standards): dispersion of the compounds to be tested in a Mueller Hinton gelose. An adaptation relating to the hydrophobicity of compounds and compositions is however necessary to disperse them in the medium: dilution of the compounds in a solvent. The compounds and compositions incorporated in the agar medium can be diluted beforehand in one or more solvents (Tween® 80 diluted with water, Tween® 80 diluted with […], DMSO diluted with water). The strains are deposited onto the agar surface with a steers apparatus. In the examples, different dissolution methods for products are tested in parallel to circumvent the problems of water/solvent distribution coefficient of the molecules (antimicrobial and potentiator) whereas the bacteria grow only in the aqueous phase. The technical requirement will not intervene in in vivo tests. The same dilution methods can be implemented in a liquid medium (microplates and tubes). The same methodology is implemented with fungi. […] MIC measurement: the minimum inhibitory concentration measurement tests are made in an agar solid medium according to international standards in force (CLSI standards), according to the previously defined protocol. […] The booster contribution as compared with the MIC of the antibiotic alone is expressed in a (MIC ATB)/(MIC ATB+booster) ratio. Thereby, gains are defined: […]

[2] = tested on: methicillin resistant S. aureus (MRSA) strains 09003, 10168; assay: MIC of the potentiator used alone on the strains of Examples 3 and 4; format: cell-based; details: Staphylococcus aureus, on these strains
Staphylococcus = assay: MIC measurement in agar medium (dilution test), Staph; format: cell-based; details: potentiator alone
Source text: as §6

[3] = booster 1 mg/L in agar, Tween/water
[4] = booster 4 mg/L in agar, Tween/water
[5] = booster 16 mg/L in agar, Tween/water

CC(=O)OCC=Cc1ccccc1 [AC, cinnamyl acetate]
occurrence of mutants on addition of the compound to ciprofloxacine [1]: does not cause the occurrence of mutants any longer
MIC 50 gain (candidas; ratio 64/100): 0.05
MIC 90 gain (candidas; ratio 64/100): 0.28
MIC 50 gain (candidas; ratio 64/500): 2.00
MIC 90 gain (candidas; ratio 64/500): 1.00
effect of the compound on bactericidal rate of Augmentin (Strain 10168 SARM): enables the bactericidal rate of Augmentin® to be accelerated
MIC (E. Coli Strain 8150; booster 1 mg/L in agar, DMSO): 0.75 µg/mL
MIC (E. Coli Strain 8150; [3]): 0.5 µg/mL
MIC of Meropenem (E. Coli Strain 8150; booster 1 mg/L in agar, DMSO): 0.023 µg/mL
MIC of Tigecycline (E. Coli Strain 8150; booster 1 mg/L in agar, DMSO): 0.064 µg/mL
MIC of Meropenem (E. Coli Strain 8150; [3]): 0.016 µg/mL
MIC of Tigecycline (E. Coli Strain 8150; [3]): 0.064 µg/mL
MIC of Meropenem (E. Coli Strain 8150; booster 4 mg/L in agar, DMSO): <
MIC of Pipera tazo (E. Coli Strain 8150; booster 4 mg/L in agar, DMSO): <
MIC of Tigecycline (E. Coli Strain 8150; booster 4 mg/L in agar, DMSO): <
MIC of Meropenem (E. Coli Strain 8150; [4]): <
MIC of Pipera tazo (E. Coli Strain 8150; [4]): <
MIC of Tigecycline (E. Coli Strain 8150; [4]): <
MIC of Meropenem (E. Coli Strain 8150; booster 16 mg/L in agar, DMSO): <
MIC of Pipera tazo (E. Coli Strain 8150; booster 16 mg/L in agar, DMSO): <
MIC of Tigecycline (E. Coli Strain 8150; booster 16 mg/L in agar, DMSO): <
MIC of Meropenem (E. Coli Strain 8150; [5]): <
MIC of Pipera tazo (E. Coli Strain 8150; [5]): <
MIC of Tigecycline (E. Coli Strain 8150; [5]): <
MIC (E. Coli Strain 08138; booster 1 mg/L in agar, DMSO): 6 µg/mL
MIC (E. Coli Strain 08138; [3]): 2 µg/mL
MIC (E. Coli Strain 08138; booster 4 mg/L in agar, DMSO): 4 µg/mL
MIC (E. Coli Strain 08138; [4]): 2 µg/mL
MIC (E. Coli Strain 08138; booster 16 mg/L in agar, DMSO): 8 µg/mL
MIC (E. Coli Strain 08138; [5]): 2 µg/mL
MIC of Cefoxitine (E. Coli Strain 08138; booster 1 mg/L in agar, DMSO): 2 µg/mL
MIC of Tigecycline (E. Coli Strain 08138; booster 1 mg/L in agar, DMSO): 0.38 µg/mL
MIC of Cefoxitine (E. Coli Strain 08138; [3]): 2 µg/mL
MIC of Tigecycline (E. Coli Strain 08138; [3]): 0.25 µg/mL
MIC of Cefoxitine (E. Coli Strain 08138; booster 4 mg/L in agar, DMSO): 1.5 µg/mL
MIC of Tigecycline (E. Coli Strain 08138; booster 4 mg/L in agar, DMSO): 0.38 µg/mL
MIC of Cefoxitine (E. Coli Strain 08138; [4]): 1.5 µg/mL
MIC of Tigecycline (E. Coli Strain 08138; [4]): 0.19 µg/mL
MIC of Cefoxitine (E. Coli Strain 08138; booster 16 mg/L in agar, DMSO): 0.5 µg/mL
MIC of Tigecycline (E. Coli Strain 08138; booster 16 mg/L in agar, DMSO): 0.125 µg/mL
MIC of Cefoxitine (E. Coli Strain 08138; [5]): 4 µg/mL
MIC of Tigecycline (E. Coli Strain 08138; [5]): 0.19 µg/mL
MIC of Meropenem (Pseudomonas Strain 08132; [3]): 8 µg/mL
MIC 50 (Pseudomonas aeruginosa; solvent DMSO): 1.00%
MIC 90 (Pseudomonas aeruginosa; solvent DMSO): 1.00%
MIC 50 (Pseudomonas aeruginosa; solvent Tween/prop glyc): >1%
MIC 90 (Pseudomonas aeruginosa; solvent Tween/prop glyc): >1%
MIC 50 (Pseudomonas aeruginosa; solvent Tween/water): >1%
MIC 90 (Pseudomonas aeruginosa; solvent Tween/water): >1%
MIC 50 (Pseudomonas aeruginosa; solvent water/water): >1%
MIC 90 (Pseudomonas aeruginosa; solvent water/water): >1%
MIC [2]: > 10000 µg/mL
MIC 50 (Staphylococcus; solvent DMSO): 1.00%
MIC 90 (Staphylococcus; solvent DMSO): 1.00%
MIC 50 (Staphylococcus; solvent Tween/prop glyc): >1%
MIC 90 (Staphylococcus; solvent Tween/prop glyc): >1%
MIC 50 (Staphylococcus; solvent Tween/water): >1%
MIC 90 (Staphylococcus; solvent Tween/water): >1%
MIC 50 (Staphylococcus; solvent water/water): >1%
MIC 90 (Staphylococcus; solvent water/water): >1%

O=C(OCc1ccccc1)c1ccccc1 [BB, benzyl benzoate]
occurrence of mutants on addition of the compound to ciprofloxacine [1]: does not cause the occurrence of mutants any longer
MIC 50 gain (candidas; ratio 64/100): 0.13
MIC 90 gain (candidas; ratio 64/100): 0.50
MIC 50 gain (candidas; ratio 64/500): 1.00
MIC 90 gain (candidas; ratio 64/500): 1.00
effect of the compound on bactericidal rate of Augmentin (Strain 10168 SARM): enables the bactericidal rate of Augmentin® to be accelerated
MIC (E. Coli Strain 8150; booster 1 mg/L in agar, DMSO): 0.75 µg/mL
MIC (E. Coli Strain 8150; [3]): 1.5 µg/mL
MIC (E. Coli Strain 8150; booster 4 mg/L in agar, DMSO): 1 µg/mL
MIC (E. Coli Strain 8150; [4]): 1 µg/mL
MIC (E. Coli Strain 8150; booster 16 mg/L in agar, DMSO): 1 µg/mL
MIC (E. Coli Strain 8150; [5]): 1.5 µg/mL
MIC of Meropenem (E. Coli Strain 8150; booster 1 mg/L in agar, DMSO): 0.047 µg/mL
MIC of Tigecycline (E. Coli Strain 8150; booster 1 mg/L in agar, DMSO): 0.125 µg/mL
MIC of Meropenem (E. Coli Strain 8150; [3]): 0.094 µg/mL
MIC of Tigecycline (E. Coli Strain 8150; [3]): 0.125 µg/mL
MIC of Meropenem (E. Coli Strain 8150; booster 4 mg/L in agar, DMSO): 0.064 µg/mL
MIC of Tigecycline (E. Coli Strain 8150; booster 4 mg/L in agar, DMSO): 0.094 µg/mL
MIC of Meropenem (E. Coli Strain 8150; [4]): 0.064 µg/mL
MIC of Tigecycline (E. Coli Strain 8150; [4]): 0.19 µg/mL
MIC of Meropenem (E. Coli Strain 8150; booster 16 mg/L in agar, DMSO): 0.094 µg/mL
MIC of Tigecycline (E. Coli Strain 8150; booster 16 mg/L in agar, DMSO): 0.125 µg/mL
MIC of Meropenem (E. Coli Strain 8150; [5]): 0.094 µg/mL
MIC of Tigecycline (E. Coli Strain 8150; [5]): 0.094 µg/mL
MIC (E. Coli Strain 08138; booster 1 mg/L in agar, DMSO): 3 µg/mL
MIC (E. Coli Strain 08138; [3]): 6 µg/mL
MIC (E. Coli Strain 08138; booster 4 mg/L in agar, DMSO): 6 µg/mL
MIC (E. Coli Strain 08138; [4]): 4 µg/mL
MIC (E. Coli Strain 08138; booster 16 mg/L in agar, DMSO): 6 µg/mL
MIC (E. Coli Strain 08138; [5]): 4 µg/mL
MIC of Cefoxitine (E. Coli Strain 08138; booster 1 mg/L in agar, DMSO): 2 µg/mL
MIC of Cefoxitine (E. Coli Strain 08138; [3]): 2 µg/mL
MIC of Cefoxitine (E. Coli Strain 08138; booster 4 mg/L in agar, DMSO): 3 µg/mL
MIC of Cefoxitine (E. Coli Strain 08138; [4]): 2 µg/mL
MIC of Cefoxitine (E. Coli Strain 08138; booster 16 mg/L in agar, DMSO): 2 µg/mL
MIC of Cefoxitine (E. Coli Strain 08138; [5]): 3 µg/mL
MIC of Meropenem (Pseudomonas Strain 08132; booster 4 mg/L in agar, DMSO): 8 µg/mL
MIC of Meropenem (Pseudomonas Strain 08132; [4]): 8 µg/mL
MIC of Meropenem (Pseudomonas Strain 08132; booster 16 mg/L in agar, DMSO): 2 µg/mL
MIC of Meropenem (Pseudomonas Strain 08132; [5]): 12 µg/mL
MIC 50 (Pseudomonas aeruginosa; solvent DMSO): 1.00%
MIC 90 (Pseudomonas aeruginosa; solvent DMSO): 1.00%
MIC 50 (Pseudomonas aeruginosa; solvent Tween/prop glyc): >1%
MIC 90 (Pseudomonas aeruginosa; solvent Tween/prop glyc): >1%
MIC 50 (Pseudomonas aeruginosa; solvent Tween/water): >1%
MIC 90 (Pseudomonas aeruginosa; solvent Tween/water): >1%
MIC 50 (Pseudomonas aeruginosa; solvent water/water): >1%
MIC 90 (Pseudomonas aeruginosa; solvent water/water): >1%
MIC [2]: > 10000 µg/mL
MIC 50 (Staphylococcus; solvent DMSO): 1.00%
MIC 90 (Staphylococcus; solvent DMSO): 1.00%
MIC 50 (Staphylococcus; solvent Tween/prop glyc): >1%
MIC 90 (Staphylococcus; solvent Tween/prop glyc): >1%
MIC 50 (Staphylococcus; solvent Tween/water): >1%
MIC 90 (Staphylococcus; solvent Tween/water): >1%
MIC 50 (Staphylococcus; solvent water/water): >1%
MIC 90 (Staphylococcus; solvent water/water): >1%
